The results in this text go back to ChEMBL document CHEMBL3044714, “Studies on fused heterocyclic 3,6-disubstituted-1,2,4-triazolo-1,3,4-thiadiazoles: synthesis and biological evaluation” (Med Chem Res, 2011).

SMILES strings stand for the structures.

One series has as its system Mus musculus. Kind of series: Analgesic activity in Mus musculus albino (mouse) assessed as protection against acetic acid-induced writhing at 25 mg/kg, ip administered 20 min prior to acetic acid-challenge measured for 20 min relative to control. The format is functional. As to conditions: route intraperitoneal. In general terms: An intraperitoneal irritant provokes the stretching counted in writhing tests.
With `c1ccc(Cc2nnc3sc(-c4ccccc4Oc4ccccc4)nn23)cc1`, the Activity came out at 30.43%.

Regarding `O=C(c1ccccc1)c1ccccc1-c1nn2c(COc3ccccc3)nnc2s1`, the Activity was determined as 43.48%.

In the case of `c1ccc(OCc2nnc3sc(Cc4cc5ccccc5[nH]4)nn23)cc1`, the Activity is listed as 40.22%.

For the molecule `O=C(CCc1nn2c(COc3ccccc3)nnc2s1)c1ccccc1`, the Activity was 65.58%.

For `CC(=O)Oc1ccccc1C(=O)O` [ASPIRIN], the Activity is reported as 61.96%.

The next series has as its system Rattus norvegicus. Kind of series: Induction of lipid peroxidation in fasted Rattus norvegicus Wistar (rat) assessed as malondialdehyde level per 100 mg gastric mucosal tissue at 60 mg/kg, po measured after 17 hr by thiobarbuteric acid method. The format is organism-based, Gastric mucosa. As to conditions: in vivo. On the set-up: dose 60 mg/kg, route oral.
On to `c1ccc(Cc2nnc3sc(-c4ccccc4Oc4ccccc4)nn23)cc1`, for which the Activity is listed as 3.26 nmol.

For `O=C(c1ccccc1)c1ccccc1-c1nn2c(COc3ccccc3)nnc2s1`, the Activity amounted to 4.42 nmol.

For `c1ccc(OCc2nnc3sc(Cc4cc5ccccc5[nH]4)nn23)cc1`, the Activity is 3.15 nmol.

Turning to `O=C(CCc1nn2c(COc3ccccc3)nnc2s1)c1ccccc1`, the Activity is given as 3.95 nmol.

Take `COc1ccc2c(c1)c(CC(=O)O)c(C)n2C(=O)c1ccc(Cl)cc1` [INDOMETHACIN]: the Activity is on record as 7.95 nmol.

A further series has as its system Rattus norvegicus. Kind of series: Ulcerogenic activity in fasted Rattus norvegicus Wistar (rat) assessed as ulcer index at 60 mg/kg, po measured after 17 hr. The format is toxicity, organism-based. On the set-up: dose 60 mg/kg, route oral. As to conditions: in vivo.
With `c1ccc(Cc2nnc3sc(-c4ccccc4Oc4ccccc4)nn23)cc1`, the UI came out at 0.91.

In the case of `O=C(c1ccccc1)c1ccccc1-c1nn2c(COc3ccccc3)nnc2s1`, the UI is reported as 1.25.

`c1ccc(OCc2nnc3sc(Cc4cc5ccccc5[nH]4)nn23)cc1`: the UI is 0.83.

For `O=C(CCc1nn2c(COc3ccccc3)nnc2s1)c1ccccc1`, the UI turned out to be 1.16.

Turning to `COc1ccc2c(c1)c(CC(=O)O)c(C)n2C(=O)c1ccc(Cl)cc1` [INDOMETHACIN], the UI is given as 2.25.

Another series relates to Rattus norvegicus. Kind of series: Anti-inflammatory activity in Rattus norvegicus Wistar (rat) assessed as inhibition of carrageenan-induced paw edema at 20 mg/kg, po administered 30 min prior to carrageenan-induced measured after 2 hr relative to control. The format is functional.
Details: not given
On the technique in general: Carrageenan injected into the paw causes an acute inflammation.
For orientation: inhibition in vivo means the share of the control response that was lost under treatment. Consider `O=C(NCc1nn2c(Cc3ccccc3)nnc2s1)c1ccccc1`, for which the inhibition in vivo at 20 mg/kg turned out to be 21.2%.

As to `c1ccc(Cc2nnc3sc(-c4ccccc4Oc4ccccc4)nn23)cc1`, the inhibition in vivo at 20 mg/kg was found to be 41%.

Take `c1ccc(Cc2nnc3sc(Cc4cc5ccccc5[nH]4)nn23)cc1`: the inhibition in vivo at 20 mg/kg was 36.7%.

With `O=C(NCc1nn2c(COc3ccccc3)nnc2s1)c1ccccc1`, the inhibition in vivo at 20 mg/kg came out at 35.9%.

With `O=C(c1ccccc1)c1ccccc1-c1nn2c(COc3ccccc3)nnc2s1`, the inhibition in vivo at 20 mg/kg amounted to 54.8%.

Consider `c1ccc(OCc2nnc3sc(Cc4cc5ccccc5[nH]4)nn23)cc1`, for which the inhibition in vivo at 20 mg/kg was 32.1%.

On to `c1ccc(OCc2nnc3sc(Cc4cccc5ccccc45)nn23)cc1`, for which the inhibition in vivo at 20 mg/kg is 18.5%.

As for `O=C(CCc1nn2c(COc3ccccc3)nnc2s1)c1ccccc1`, the inhibition in vivo at 20 mg/kg is 56.5%.

Consider `O=C(NCc1nn2c(-c3ccccc3O)nnc2s1)c1ccccc1`, for which the inhibition in vivo at 20 mg/kg turned out to be 24.4%.

For `Oc1ccccc1-c1nnc2sc(Cc3cccc4ccccc34)nn12`, the inhibition in vivo at 20 mg/kg was found to be 28%.

`COc1ccc2c(c1)c(CC(=O)O)c(C)n2C(=O)c1ccc(Cl)cc1` [INDOMETHACIN]: the inhibition in vivo at 20 mg/kg turned out to be 50.7%.

For the next series, the system named is Rattus norvegicus. Kind of series: Anti-inflammatory activity in Rattus norvegicus Wistar (rat) assessed as inhibition of carrageenan-induced paw edema at 20 mg/kg, po administered 30 min prior to carrageenan-induced measured after 3 hr relative to control. The format is functional.
Details: not given
As to `O=C(NCc1nn2c(Cc3ccccc3)nnc2s1)c1ccccc1`, the inhibition in vivo at 20 mg/kg is 28%.

Regarding `c1ccc(Cc2nnc3sc(-c4ccccc4Oc4ccccc4)nn23)cc1`, the inhibition in vivo at 20 mg/kg came to 56.3%.

On to `c1ccc(Cc2nnc3sc(Cc4cc5ccccc5[nH]4)nn23)cc1`, for which the inhibition in vivo at 20 mg/kg amounted to 41%.

For the molecule `O=C(NCc1nn2c(COc3ccccc3)nnc2s1)c1ccccc1`, the inhibition in vivo at 20 mg/kg is 37.1%.

With `O=C(c1ccccc1)c1ccccc1-c1nn2c(COc3ccccc3)nnc2s1`, the inhibition in vivo at 20 mg/kg was 63.3%.

As to `c1ccc(OCc2nnc3sc(Cc4cc5ccccc5[nH]4)nn23)cc1`, the inhibition in vivo at 20 mg/kg stood at 50.5%.

With `c1ccc(OCc2nnc3sc(Cc4cccc5ccccc45)nn23)cc1`, the inhibition in vivo at 20 mg/kg amounted to 24.6%.

Regarding `O=C(CCc1nn2c(COc3ccccc3)nnc2s1)c1ccccc1`, the inhibition in vivo at 20 mg/kg came out at 70.9%.

Turning to `O=C(NCc1nn2c(-c3ccccc3O)nnc2s1)c1ccccc1`, the inhibition in vivo at 20 mg/kg is 32.3%.

Turning to `Oc1ccccc1-c1nnc2sc(Cc3cccc4ccccc34)nn12`, the inhibition in vivo at 20 mg/kg worked out at 35%.

Turning to `COc1ccc2c(c1)c(CC(=O)O)c(C)n2C(=O)c1ccc(Cl)cc1` [INDOMETHACIN], the inhibition in vivo at 20 mg/kg came to 66.9%.
